Source: US11111237B2, “Bicyclic compound and use thereof” (SK BIOPHARMACEUTICALS CO., LTD., priority 2019, dated 2021)

Experiments:
[1] = target: PRMT5-MEP50 enzyme complex (Homo sapiens (Human), UniProt O14744); assay: PRMT5 enzyme activity in vitro assay (methylation of histone H4R3, ELISA absorbance at 450 nm); type: biochemical; conditions: SAM, histone H4 peptide, room temperature 2 hours, 8 points from 10 μM to 0.128 nM
How it was run: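 IC50 was derived from ELISA absorbance at 450 nm, using primary and HRP antibodies against H4R3 methylation on immobilised histone H4 peptide (residues 1-20). Compounds (10 μM to 0.128 nM, 8 points, 1:5) were incubated 2 h at room temperature with the PRMT5-MEP50 complex and SAM, diluted to 5 μg/mL and 2 μM respectively.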

[2] = tested on: SDMA levels in the tumor (U87MG tumor cells implanted subcutaneously); assay: Test for in vivo target inhibitory activity (SDMA levels in U87MG tumor); conditions: U87MG tumor in nude mice, oral 25 or 50 mg/kg 1-2 times daily for one week
Experimental: Test for in vivo target inhibitory activity
After U87MG tumor cells were implanted subcutaneously in nude mice, a PRMT5 inhibitor was administered orally (25 or 50 mg/kg) 1-2 times daily for one week, and then the degree to which SDMA levels in the tumor decreased was measured.
Reagents: Bradford's solution (Catalog No. 500-0006) was purchased from Bio-rad (USA). SDMA antibody (Catalog No. 13222s) was purchased from Cell Signaling Technology (USA). SmD3 antibody (Catalog No. ap12451a) was purchased from Abgent (USA), and secondary antibody (Catalog No. ab6721) and TMB substrate (Catalog No. ab210902) were purchased from Abcam (UK).
Experimental procedure: The tumor tissues transplanted into the mice were excised, the cells were lysed, and then quantified with Bradford's solution. 5-10 μg of protein per sample was diluted with carbonate-bicarbonate buffer and dispensed into a 96-well plate and reacted at room temperature for 2 hours. After washing with phosphate buffered saline (PBST) containing 0.05% Tween-20 3 times, 200 μL of PBST containing 5% bovine serum albumin (BSA-PBST) was added and reacted at room temperature for 2 hours. After washing with PBST 3 times, the SDMA antibody and the SmD3 antibody were diluted in BSA-PBST, and 100 μL of each was dispensed onto the plate and reacted at 4° C. overnight. After washing with PBST 3 times the next day, 100 μL of the secondary antibody diluted in BSA-PBST was added and reacted at room temperature for 1 hour. After washing with PBST 3 times, 100 μL of TMB substrate was added and reacted at room temperature for 10-20 minutes, and 100 μL of 1N sulfuric acid solution was added to terminate the reaction. Then, the absorbance at 450 nm was measured to calculate the degree of SDMA inhibition by the compound. (+++: more than 70%, ++: more than 30% and 70% or less, +: 30% or less)

Sequence of PRMT5-MEP50 enzyme complex (O14744 2-637): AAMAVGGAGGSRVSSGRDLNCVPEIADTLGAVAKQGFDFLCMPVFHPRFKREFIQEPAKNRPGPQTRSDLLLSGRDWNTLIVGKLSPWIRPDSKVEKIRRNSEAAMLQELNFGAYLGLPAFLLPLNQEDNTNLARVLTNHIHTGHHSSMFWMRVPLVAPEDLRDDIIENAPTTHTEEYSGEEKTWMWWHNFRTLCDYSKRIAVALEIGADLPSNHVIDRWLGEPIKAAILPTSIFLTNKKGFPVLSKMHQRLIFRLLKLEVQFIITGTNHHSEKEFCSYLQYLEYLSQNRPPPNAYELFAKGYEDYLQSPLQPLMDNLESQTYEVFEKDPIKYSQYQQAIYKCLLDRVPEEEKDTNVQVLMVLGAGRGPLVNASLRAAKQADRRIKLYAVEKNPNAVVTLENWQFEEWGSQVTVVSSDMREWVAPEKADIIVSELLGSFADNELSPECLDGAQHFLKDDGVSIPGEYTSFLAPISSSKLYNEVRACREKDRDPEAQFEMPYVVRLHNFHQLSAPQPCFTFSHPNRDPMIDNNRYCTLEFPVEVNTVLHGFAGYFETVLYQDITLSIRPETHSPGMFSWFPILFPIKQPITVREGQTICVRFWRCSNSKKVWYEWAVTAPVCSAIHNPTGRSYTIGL
Sequence of PRMT5-MEP50 enzyme complex (Q9BQA1 2-342 partner): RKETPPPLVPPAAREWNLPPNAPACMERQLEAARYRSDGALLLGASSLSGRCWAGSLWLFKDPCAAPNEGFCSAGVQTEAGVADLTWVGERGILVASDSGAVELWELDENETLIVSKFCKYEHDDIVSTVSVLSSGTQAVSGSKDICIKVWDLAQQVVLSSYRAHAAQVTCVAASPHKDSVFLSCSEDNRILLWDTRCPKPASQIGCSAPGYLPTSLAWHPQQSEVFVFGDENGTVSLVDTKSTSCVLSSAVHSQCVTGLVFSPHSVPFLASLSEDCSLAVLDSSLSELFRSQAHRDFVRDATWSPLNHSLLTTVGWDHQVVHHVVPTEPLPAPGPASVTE

| IC50 [1] [nM] | SMILES | SDMA inhibition (%) [2] |
| --- | --- | --- |
| 1 to 100 | CN1CCN(C[C@H](O)CN2CCc3ccccc3C2)C(=O)c2ccc(Br)cc21 [Example 156, 8-bromo-4-[(2R)-3-(3,4-dihydro-1H-isoquinolin-2-yl)-2-hydroxy-propyl]-1-methyl-2,3-dihydro-1,4-benzodiazepin-5-one] | ++ (++: more than 30% and 70% or less) |
| 100 to 1000 | CN1CCC(Oc2ccc3c(c2)OC(C)(C)CN(C[C@H](O)CN2CCc4ccccc4C2)C3=O)CC1 [Example 112, 4-[(2R)-3-(3,4-dihydro-1H-isoquinolin-2-yl)-2-hydroxy-propyl]-2,2-dimethyl-8-[(1-methyl-4-piperidyl)oxy]-3H-1,4-benzoxazepin-5-one] | +++ (+++: more than 70%) |
| 100 to 1000 | O=C1c2ccc(OC3CCN(C4COC4)CC3)cc2OCCN1C[C@H](O)CN1CCc2ccccc2C1 [Example 92, 4-[(2R)-3-(3,4-dihydro-1H-isoquinolin-2-yl)-2-hydroxy-propyl]-8-[[1-(oxetan-3-yl)-4-piperidyl]oxy]-2,3-dihydro-1,4-benzoxazepin-5-one] | +++ (+++: more than 70%) |
| 1 to 100 | O=C1c2ccc(Br)cc2CCCN1C[C@H](O)CN1CCc2ccccc2C1 [Example 155, 7-bromo-2-[(2R)-3-(3,4-dihydro-1H-isoquinolin-2-yl)-2-hydroxy-propyl]-4,5-dihydro-3H-2-benzazepin-1-one] | + (+: 30% or less) |

Further lines, the molecule ahead of its results:

| SMILES | IC50 [1] [nM] | SDMA inhibition (%) [2] |
| --- | --- | --- |
| CCN1CCC(Oc2ccc3c(c2)OCCN(C[C@H](O)CN2CCc4ccccc4C2)C3=O)CC1 [Example 88, 4-[(2R)-3-(3,4-dihydro-1H-isoquinolin-2-yl)-2-hydroxy-propyl]-8-[(1-ethyl-4-piperidyl)oxy]-2,3-dihydro-1,4-benzoxazepin-5-one] | 1 to 100 | +++ (+++: more than 70%) |
| CN1CCC(Oc2ccc3c(c2)OCCN(C[C@H](O)CN2CCc4ccccc4C2)C3=O)CC1 [Example 87, 4-[(2R)-3-(3,4-dihydro-1H-isoquinolin-2-yl)-2-hydroxy-propyl]-8-[(1-methyl-4-piperidyl)oxy]-2,3-dihydro-1,4-benzoxazepin-5-one] | 1 to 100 | +++ (+++: more than 70%) |
| CCCc1ccc2c(c1)OCCN(C[C@H](O)CN1CCc3ccccc3C1)C2=O [Example 11, 4-[(2R)-3-(3,4-dihydro-1H-isoquinolin-2-yl)-2-hydroxy-propyl]-8-propyl-2,3-dihydro-1,4-benzoxazepin-5-one] | 100 to 1000 | ++ (++: more than 30% and 70% or less) |
| O=C1c2ccc(CN3CCOCC3)cc2OCCN1C[C@H](O)CN1CCc2ccccc2C1 [Example 22, 4-[(2R)-3-(3,4-dihydro-1H-isoquinolin-2-yl)-2-hydroxy-propyl]-8-(morpholinomethyl)-2,3-dihydro-1,4-benzoxazepin-5-one] | 1 to 100 | +++ (+++: more than 70%) |
| O=C(c1ccc2c(c1)OCCN(C[C@H](O)CN1CCc3ccccc3C1)C2=O)N1CC2CCCC2C1 (stereo partly drawn) [Example 193, 8-(3,3a,4,5,6,6a-hexahydro-1H-cyclopenta[c]pyrrol-2-carbonyl)-4-[(2R)-3-(3,4-dihydro-1H-isoquinolin-2-yl)-2-hydroxy-propyl]-2,3-dihydro-1,4-benzoxazepin-5-one] | 100 to 1000 |  |
| CN1CCN(Cc2ccc3c(c2)OCCN(C[C@H](O)CN2CCc4ccccc4C2)C3=O)CC1 [Example 54, 4-[(2R)-3-(3,4-dihydro-1H-isoquinolin-2-yl)-2-hydroxy-propyl]-8-[(4-methylpiperazin-1-yl)methyl]-2,3-dihydro-1,4-benzoxazepin-5-one] | 1 to 100 |  |
